The values that follow come from US20100160356A1, “NOVEL CYCLOBUTYL COMPOUNDS AS KINASE INHIBITORS” (priority 2006, published 2010).

Data set [1] concerns the target IGF1R (Homo sapiens, UniProt P08069). As to the kind of experiment: Inhibition of IGF1R (flashplate assay). Type of data set: biochemical. The note with it: flashplate method. Here is the method: (§1) The test plates used are 96-well flashplate microtitre plates from Perkin Elmer (USA). The components of the kinase reaction are pipetted into the assay plate. The IGF1R kinase is incubated for 1 hr. with radioactively labelled ^33P-ATP in the presence and absence of test substances in a total volume of 100 μl at room temperature together with biotinylated poly(Glu, Tyr)4:1. The reaction is terminated using 25 μl of a 200 mM EDTA solution. After incubation for a further 30 min at room temperature, the supernatants are removed by suction, and the wells are washed three times with 100 μl of 0.9% NaCl solution each time. The radioactivity is measured using a Topcount scintillation counter (PerkinElmer, USA). IC50 values are calculated using the RS1 computer program.

Data set [2] has as its target T1, FAK (focal adhesion kinase) (Homo sapiens, UniProt Q05397).
T1 construct: endogenous in cells; host or cells: Calu-6 or HT-29
As to the kind of experiment: Inhibition of FAK (ELISA assay), FAK phosphorylation in cells. Type of data set: cell-based. The following applies: human cells with FAK amplification. An outline of the steps: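 Cells pretreated 45 min with increasing compound concentrations, with a reference inhibitor series as internal control. FAK from lysates captured by specific antibody on ELISA plate or LUMINEX beads; tyrosine phosphorylation detected with anti-phosphotyrosine antibody by chemiluminescence or fluorescence.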
(In general: ELISA stands for enzyme-linked immunosorbent assay.)

The target of data set [3] is Met (Homo sapiens, UniProt P08581). As to the kind of experiment: Inhibition of Met (flashplate method). Format: biochemical.
For data set [4], the target named is T2, insulin receptor (InsR) (Homo sapiens, UniProt P06213).
T2 construct: endogenous in cells; host or cells: HepG2
Nature of the data set: Inhibition of InsR (ELISA assay), insulin-stimulated autophosphorylation in cells. Type of data set: cell-based. The note with it: human cells stimulated with insulin. Here is the method: Cultivated human cells which express the insulin receptor (InsR) (for example HepG2) are stimulated using human insulin, the natural ligand of InsR. The stimulation induces autophosphorylation of tyrosine residues in the cytoplasmatic InsR domain, which triggers signal transduction cascades, which initiate various biological reactions of the cells. The amount of phosphorylated InsR is determined by a receptor-specific capture ELISA or an analogous LUMINEX assay. The InsR from cell lysates is bound to a 96-well ELISA plate or LUMINEX beads by means of a specific antibody (“capturing”), and the tyrosine phosphorylation is detected using a biotin-labelled anti-phosphotyrosine antibody and a streptavidin-peroxidase conjugate by a chemiluminescence method or by means of a fluorescence-labelled anti-phosphotyrosine antibody. For determination of the activity of kinase inhibitors, cells are pretreated with increasing concentrations of these compounds for 45 min and subsequently stimulated using insulin for 5 min. As internal control, the biological activity of the ligand insulin is checked, and a concentration series of a reference inhibitor is measured.

In data set [5] the target is T3, IGF1 receptor (IGF1R) (Homo sapiens, UniProt P08069).
T3 construct: endogenous in cells; host or cells: MCF-7 or Calu-6
As to the kind of experiment: Inhibition of IGF1R (ELISA assay), IGF1-stimulated autophosphorylation in cells. Format: cell-based. The note with it: human tumour cells stimulated with IGF1, read-out: IC50 IGF (ELISA). A digest of the protocol: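 Cells were preincubated 45 min with increasing compound concentrations, then stimulated 5 min with IGF1. Phospho-IGF1R in lysates was captured by a receptor-specific antibody and detected with anti-phosphotyrosine antibody via chemiluminescence ELISA or fluorescent LUMINEX read-out.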

For data set [6], the target named is VEGF-2 (Homo sapiens, UniProt P35968). Nature of the data set: Inhibition of VEGF-2 (flashplate assay). Format: biochemical. The note with it: flashplate method. A digest of the protocol: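 Kinase incubated 3 hr at room temperature with ^33P-ATP and biotinylated poly(Glu, Tyr)4:1, with or without test substance. Stopped with EDTA, wells washed after 30 min; incorporated radioactivity counted by scintillation and IC50 calculated.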

Data set [7] addresses T4, SGK1 (Homo sapiens, UniProt O00141).
T4 sequence (O00141 1-431): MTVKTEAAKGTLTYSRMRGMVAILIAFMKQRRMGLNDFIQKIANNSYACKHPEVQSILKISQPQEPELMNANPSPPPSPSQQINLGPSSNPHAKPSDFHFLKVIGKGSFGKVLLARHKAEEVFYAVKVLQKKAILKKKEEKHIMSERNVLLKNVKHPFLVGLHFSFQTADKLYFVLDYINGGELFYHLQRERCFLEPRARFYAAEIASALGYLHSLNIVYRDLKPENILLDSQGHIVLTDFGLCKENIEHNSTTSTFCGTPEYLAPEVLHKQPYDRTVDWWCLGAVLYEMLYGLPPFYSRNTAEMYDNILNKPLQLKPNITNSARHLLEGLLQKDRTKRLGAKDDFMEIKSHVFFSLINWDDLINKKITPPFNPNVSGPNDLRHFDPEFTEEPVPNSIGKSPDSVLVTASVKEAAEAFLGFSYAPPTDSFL
Nature of the data set: Inhibition of SGK1 (flashplate assay). Format: biochemical. The following applies: flashplate method. Here is the method: as §1, with “are 384-well” for “are 96-well”, “The SGK1” for “The IGF1R”, “for 3” for “for 1”

The target in data set [8] is TIE2 (Homo sapiens, UniProt Q02763). As to the kind of experiment: Inhibition of TIE2 (flashplate assay). The note with it: flashplate method. Format: biochemical. A digest of the protocol:
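Radiometric flashplate kinase assay: TIE2 incubated 3 h at room temperature with ³³P-ATP and biotinylated poly(Glu,Tyr) 4:1, with or without test compound. Reaction stopped with EDTA, wells washed, incorporated radioactivity counted by scintillation; IC50 calculated from the data.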

The target of data set [9] is T5, TGFβR1 (Homo sapiens, UniProt P36897).
T5 sequence (P36897 34-503): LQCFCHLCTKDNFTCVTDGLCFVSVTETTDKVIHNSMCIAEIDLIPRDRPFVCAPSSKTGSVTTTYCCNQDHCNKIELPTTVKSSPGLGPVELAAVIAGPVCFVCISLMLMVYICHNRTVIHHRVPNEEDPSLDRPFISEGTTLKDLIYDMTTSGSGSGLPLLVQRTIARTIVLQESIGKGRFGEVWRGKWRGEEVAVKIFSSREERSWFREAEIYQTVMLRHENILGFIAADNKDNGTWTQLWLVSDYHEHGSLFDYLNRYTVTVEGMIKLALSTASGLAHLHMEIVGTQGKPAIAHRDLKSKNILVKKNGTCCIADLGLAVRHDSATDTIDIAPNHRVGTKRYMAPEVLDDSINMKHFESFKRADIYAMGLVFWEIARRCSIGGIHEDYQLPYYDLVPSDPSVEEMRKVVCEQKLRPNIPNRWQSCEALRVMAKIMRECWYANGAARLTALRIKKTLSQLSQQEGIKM
Nature of the data set: Inhibition of TGFβR1 (flashplate assay). Format: biochemical. The following applies: flashplate method. A digest of the protocol:
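Kinase was incubated 45 min with 33P-ATP and biotinylated substrate, with or without test substances, then stopped with EDTA. Incorporated radioactivity was counted by scintillation in a flashplate format. IC50 values were calculated from the counts.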

In data set [10] the target is PDGFRβ (Homo sapiens, UniProt P09619). As to the kind of experiment: Inhibition of PDGFRβ (flashplate assay). The note with it: flashplate method. Type of data set: biochemical. A digest of the protocol:
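Readout is scintillation counting of ^33P incorporated by PDGFRβ autophosphorylation after EDTA stop and washes. Kinase and ^33P-ATP were incubated with or without compound for 3 hr at room temperature. IC50 derived from these counts.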

Data set [11] relates to CHK. Nature of the data set: Inhibition of CHK (flashplate method). Format: biochemical.

Each structure is given as a SMILES string.

Chain of IGF1R (P08069 31-1367, species assumed): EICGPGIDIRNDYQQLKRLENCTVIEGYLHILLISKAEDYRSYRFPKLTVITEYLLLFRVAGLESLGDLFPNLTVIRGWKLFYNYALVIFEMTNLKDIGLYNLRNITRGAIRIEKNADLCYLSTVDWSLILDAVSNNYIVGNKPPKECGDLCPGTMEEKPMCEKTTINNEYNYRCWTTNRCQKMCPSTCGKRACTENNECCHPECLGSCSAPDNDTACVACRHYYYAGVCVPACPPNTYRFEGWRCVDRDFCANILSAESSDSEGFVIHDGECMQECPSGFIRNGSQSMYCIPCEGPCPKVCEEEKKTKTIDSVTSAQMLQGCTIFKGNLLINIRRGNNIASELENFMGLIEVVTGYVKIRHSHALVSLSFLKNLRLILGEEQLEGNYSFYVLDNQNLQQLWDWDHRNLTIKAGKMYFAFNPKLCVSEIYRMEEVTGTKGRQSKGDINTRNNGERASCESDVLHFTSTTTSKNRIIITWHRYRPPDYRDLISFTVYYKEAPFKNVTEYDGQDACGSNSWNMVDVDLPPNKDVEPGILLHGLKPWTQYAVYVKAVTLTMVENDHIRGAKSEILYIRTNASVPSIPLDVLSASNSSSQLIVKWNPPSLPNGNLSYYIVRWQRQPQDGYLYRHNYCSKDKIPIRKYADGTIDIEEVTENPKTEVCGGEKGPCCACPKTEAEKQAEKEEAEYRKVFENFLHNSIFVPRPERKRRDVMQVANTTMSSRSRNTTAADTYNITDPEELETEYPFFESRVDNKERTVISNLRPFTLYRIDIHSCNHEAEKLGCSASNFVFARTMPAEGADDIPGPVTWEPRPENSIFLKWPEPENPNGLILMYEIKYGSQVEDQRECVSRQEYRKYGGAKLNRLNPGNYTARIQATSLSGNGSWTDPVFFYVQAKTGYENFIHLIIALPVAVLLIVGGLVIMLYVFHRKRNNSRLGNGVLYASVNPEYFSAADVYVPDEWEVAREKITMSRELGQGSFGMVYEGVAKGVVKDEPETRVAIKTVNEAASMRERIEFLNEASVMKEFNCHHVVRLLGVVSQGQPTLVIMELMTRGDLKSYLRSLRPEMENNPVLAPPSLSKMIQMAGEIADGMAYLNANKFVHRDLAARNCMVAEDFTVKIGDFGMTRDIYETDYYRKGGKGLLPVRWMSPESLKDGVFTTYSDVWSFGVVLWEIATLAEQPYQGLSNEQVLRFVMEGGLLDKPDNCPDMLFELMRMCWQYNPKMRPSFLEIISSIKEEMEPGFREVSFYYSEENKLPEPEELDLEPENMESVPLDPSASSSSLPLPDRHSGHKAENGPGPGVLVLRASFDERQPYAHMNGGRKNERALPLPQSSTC
T3 sequence (P08069 31-1367): as the sequence (P08069 31-1367, species assumed) above
Chain of VEGF-2 (P35968 20-1356): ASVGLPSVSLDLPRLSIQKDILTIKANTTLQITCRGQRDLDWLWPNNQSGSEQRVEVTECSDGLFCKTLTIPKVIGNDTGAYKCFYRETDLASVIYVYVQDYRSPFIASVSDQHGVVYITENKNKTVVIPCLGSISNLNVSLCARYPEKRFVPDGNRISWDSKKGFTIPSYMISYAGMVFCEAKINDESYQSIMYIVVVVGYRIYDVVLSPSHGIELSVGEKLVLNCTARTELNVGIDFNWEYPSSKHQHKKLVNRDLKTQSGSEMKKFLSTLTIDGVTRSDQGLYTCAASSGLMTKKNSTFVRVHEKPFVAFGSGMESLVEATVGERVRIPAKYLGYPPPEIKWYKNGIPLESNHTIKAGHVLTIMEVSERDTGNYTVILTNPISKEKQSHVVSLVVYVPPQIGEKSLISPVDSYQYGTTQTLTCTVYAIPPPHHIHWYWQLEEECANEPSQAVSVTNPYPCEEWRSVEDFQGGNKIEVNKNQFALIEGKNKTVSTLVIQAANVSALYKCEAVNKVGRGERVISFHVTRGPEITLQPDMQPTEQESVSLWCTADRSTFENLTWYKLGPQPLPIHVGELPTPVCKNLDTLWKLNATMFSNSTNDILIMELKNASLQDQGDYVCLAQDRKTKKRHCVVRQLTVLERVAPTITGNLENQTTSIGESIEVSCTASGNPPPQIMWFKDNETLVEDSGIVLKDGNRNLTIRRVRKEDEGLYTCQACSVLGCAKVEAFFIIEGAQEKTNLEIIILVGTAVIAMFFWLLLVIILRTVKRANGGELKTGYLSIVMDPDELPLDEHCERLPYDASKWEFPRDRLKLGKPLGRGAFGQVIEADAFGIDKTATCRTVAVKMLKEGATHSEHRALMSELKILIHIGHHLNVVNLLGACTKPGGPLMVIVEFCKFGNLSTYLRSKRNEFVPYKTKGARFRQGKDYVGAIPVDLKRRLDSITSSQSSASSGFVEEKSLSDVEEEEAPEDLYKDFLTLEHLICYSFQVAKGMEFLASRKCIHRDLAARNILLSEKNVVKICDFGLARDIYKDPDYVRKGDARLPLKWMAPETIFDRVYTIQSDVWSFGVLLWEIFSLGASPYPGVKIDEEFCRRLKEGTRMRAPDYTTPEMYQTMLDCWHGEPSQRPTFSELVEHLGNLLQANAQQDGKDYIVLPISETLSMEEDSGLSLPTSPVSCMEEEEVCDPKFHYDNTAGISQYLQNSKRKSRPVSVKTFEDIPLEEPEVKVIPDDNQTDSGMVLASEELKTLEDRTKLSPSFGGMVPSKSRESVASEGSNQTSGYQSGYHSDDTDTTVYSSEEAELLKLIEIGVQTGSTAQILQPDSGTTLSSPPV
T1 sequence (Q05397 whole entry): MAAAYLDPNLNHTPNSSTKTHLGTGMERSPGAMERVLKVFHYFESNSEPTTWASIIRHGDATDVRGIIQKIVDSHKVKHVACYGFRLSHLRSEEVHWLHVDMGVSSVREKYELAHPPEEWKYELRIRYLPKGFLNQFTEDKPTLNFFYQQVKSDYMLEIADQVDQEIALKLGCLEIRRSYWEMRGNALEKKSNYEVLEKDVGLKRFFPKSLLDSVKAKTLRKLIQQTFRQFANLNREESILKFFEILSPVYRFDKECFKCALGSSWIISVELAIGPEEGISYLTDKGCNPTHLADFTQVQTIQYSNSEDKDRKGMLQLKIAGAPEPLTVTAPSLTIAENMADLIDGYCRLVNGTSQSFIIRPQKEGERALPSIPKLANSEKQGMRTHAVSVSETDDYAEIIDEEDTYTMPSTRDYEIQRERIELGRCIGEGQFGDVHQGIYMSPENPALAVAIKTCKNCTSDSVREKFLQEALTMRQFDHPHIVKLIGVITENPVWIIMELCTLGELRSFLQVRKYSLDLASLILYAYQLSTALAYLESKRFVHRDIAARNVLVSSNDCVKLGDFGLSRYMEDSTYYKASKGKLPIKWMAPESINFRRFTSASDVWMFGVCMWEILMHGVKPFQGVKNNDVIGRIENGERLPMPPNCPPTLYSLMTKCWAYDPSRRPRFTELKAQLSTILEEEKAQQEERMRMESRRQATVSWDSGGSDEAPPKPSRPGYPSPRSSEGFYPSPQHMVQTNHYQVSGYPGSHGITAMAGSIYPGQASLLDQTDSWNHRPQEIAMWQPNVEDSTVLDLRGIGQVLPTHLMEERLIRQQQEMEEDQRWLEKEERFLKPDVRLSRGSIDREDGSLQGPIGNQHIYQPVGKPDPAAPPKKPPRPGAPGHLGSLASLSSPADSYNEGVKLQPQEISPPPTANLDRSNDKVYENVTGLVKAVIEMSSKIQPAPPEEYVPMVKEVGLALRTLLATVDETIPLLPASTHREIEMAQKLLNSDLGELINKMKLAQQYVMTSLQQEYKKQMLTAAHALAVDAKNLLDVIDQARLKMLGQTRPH
T2 sequence (P06213 28-1382): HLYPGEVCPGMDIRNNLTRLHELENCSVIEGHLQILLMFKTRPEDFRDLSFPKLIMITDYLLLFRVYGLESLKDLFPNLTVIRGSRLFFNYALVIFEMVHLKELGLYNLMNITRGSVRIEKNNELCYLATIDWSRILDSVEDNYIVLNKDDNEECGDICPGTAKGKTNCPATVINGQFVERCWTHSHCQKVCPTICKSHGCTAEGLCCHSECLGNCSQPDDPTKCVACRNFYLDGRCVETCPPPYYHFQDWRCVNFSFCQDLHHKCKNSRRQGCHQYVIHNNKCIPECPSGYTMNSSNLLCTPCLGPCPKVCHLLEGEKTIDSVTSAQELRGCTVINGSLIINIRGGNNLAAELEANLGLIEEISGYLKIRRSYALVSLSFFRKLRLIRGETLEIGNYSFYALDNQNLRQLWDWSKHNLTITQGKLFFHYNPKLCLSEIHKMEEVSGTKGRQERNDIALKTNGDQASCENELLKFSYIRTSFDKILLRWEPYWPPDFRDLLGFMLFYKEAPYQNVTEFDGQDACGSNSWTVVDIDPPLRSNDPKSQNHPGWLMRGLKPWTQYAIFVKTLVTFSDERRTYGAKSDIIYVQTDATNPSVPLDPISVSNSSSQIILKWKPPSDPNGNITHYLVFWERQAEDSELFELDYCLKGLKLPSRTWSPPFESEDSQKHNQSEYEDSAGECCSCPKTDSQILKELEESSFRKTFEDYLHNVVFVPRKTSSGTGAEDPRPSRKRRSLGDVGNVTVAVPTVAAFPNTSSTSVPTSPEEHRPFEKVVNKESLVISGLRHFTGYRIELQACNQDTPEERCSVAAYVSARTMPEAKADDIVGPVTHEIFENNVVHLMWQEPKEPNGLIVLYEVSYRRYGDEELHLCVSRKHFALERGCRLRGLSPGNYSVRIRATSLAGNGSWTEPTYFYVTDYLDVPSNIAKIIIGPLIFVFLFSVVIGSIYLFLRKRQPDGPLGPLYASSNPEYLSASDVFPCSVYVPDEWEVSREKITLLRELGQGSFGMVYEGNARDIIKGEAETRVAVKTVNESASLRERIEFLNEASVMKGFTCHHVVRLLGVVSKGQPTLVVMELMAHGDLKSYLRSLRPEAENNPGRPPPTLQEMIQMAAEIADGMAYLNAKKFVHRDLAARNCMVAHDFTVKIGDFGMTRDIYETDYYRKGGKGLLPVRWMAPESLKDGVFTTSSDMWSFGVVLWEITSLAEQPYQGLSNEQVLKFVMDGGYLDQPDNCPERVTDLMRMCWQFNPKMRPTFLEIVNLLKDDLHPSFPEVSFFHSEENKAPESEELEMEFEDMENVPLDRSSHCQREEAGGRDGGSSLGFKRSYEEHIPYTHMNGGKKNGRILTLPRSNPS

A word on the IC50: it is the concentration that inhibits the measured activity by half. As for `C[Si](C)(COc1cccc(-c2cn(C3CC(CN)C3)c3ncnc(N)c23)c1)c1ccccc1` (centres unmarked) [Compound 8], the IC50 in data set [1] was 320 nM; in [2], 16000 nM; in data set [3] it was 1100 nM; in [4] it was 9500 nM; in [5], 810 nM.
Take `NCC1CC(n2cc(-c3cccs3)c3c(N)ncnc32)C1` (centres unmarked) [Compound 41]: the IC50 came out at 5600 nM in data set [1]; 3800 nM in [2]; 1200 nM in data set [6]; 1600 nM in [7]; 4800 nM in data set [8]; 2700 nM in [9]. Moreover, in data set [5], the concentration for half-maximal inhibition (IC50) turned out to be 6200 nM.
The melting point is the temperature of the solid-liquid transition. Take `NCC1CC(n2cc(-c3cccc(NCc4ccccc4)c3)c3c(N)ncnc32)C1` (centres unmarked) [Compound 25]: the melting point was 204 to 206 °C. This compound also had a half-inhibitory concentration (IC50) in [1] of 820 nM. The same compound registered an IC50 in data set [6] of 390 nM. The compound also showed an IC50 in data set [7] of 3600 nM. The IC50 in [8] amounted to 1500 nM. The compound further yielded an IC50 in data set [9] of 3700 nM. Also, it took 1200 nM to reach half-maximal inhibition in [10] (IC50). The concentration for half-maximal inhibition (IC50) in data set [5] amounted to 3000 nM.
On to `C[Si](C)(C)COc1cccc(-c2cn(C3CC(CN)C3)c3ncnc(N)c23)c1` (centres unmarked) [Compound 9], for which the 50% inhibitory concentration (IC50) was determined as 130 nM in [1], 14000 nM in [2], 5500 nM in data set [4] and 570 nM in [5].
With `NCC1CC(n2cc(-c3ccco3)c3c(N)ncnc32)C1` (centres unmarked) [Compound 38], the IC50 in [2] came to 18000 nM; in data set [6], 2300 nM; in data set [11], 8800 nM; in [7] it was 2600 nM; in [5], 17000 nM.
